Experimental data reported in the supplement of paper PMC11451515.

Key:
Conditions in all cases: 48 h
[1] = test system: P12-Ichikawa; experiment: AUC of viability dose-response curve (% viability x log10 dose units); higher = less sensitive
Procedure, shortened: (§1)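 Leukemia cells adapted to each medium were seeded in 1536-well plates (500 or 1000 cells/well) and given library compounds in DMSO for 48 h at 37°C. The 11 threefold doses spanned 47 μM to 0.79 nM, and CellTiter-Glo One luminescence was normalised per plate to DMSO and cell-free wells before four-parameter log-logistic fitting on log10 dose. Area under the curve was integrated with the trapezoidal rule, scaling curves above full viability and removing curves that failed quality control.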

[2] = test system: NOMO1; experiment: as above
Procedure, shortened: as §1

[3] = test system: SEM cells; experiment: as above
Procedure, shortened: as §1

[4] = test system: P12-Ichikawa; experiment: cell viability relative to DMSO control; higher = less cytotoxic
Procedure, shortened: (§2)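 Viability values are per-plate percentages of DMSO wells, with background from cell-free wells. Library compounds in DMSO were pin-dosed, in an 11-point threefold series from 47 μM to 0.79 nM, onto NOMO1 or SEM (500 cells/well) or P12-Ichikawa (1000 cells/well) leukemia cells in 1536-well plates (5 μl). Those cells had been adapted for at least four passages in each medium, and CellTiter-Glo One luminescence was read after 48 h at 37°C.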

[5] = test system: NOMO1; experiment: as above
Procedure, shortened: as §2

[6] = test system: SEM cells; experiment: as above
Procedure, shortened: as §2

CC=CC1=C(C(=O)O)N2C(=O)[C@@H](NC(=O)[C@H](N)c3ccc(O)cc3)[C@H]2SC1.O
AUC of viability dose-response curve
Conditions	[1]	[2]	[3]
HPLM + 10% dialyzed FBS	415	370	395
RPMI 5 mM glucose + 10% FBS	416	342	460
RPMI 5 mM glucose + 10% dialyzed FBS	429	376	447

cell viability [%]
Conditions	[4]	[5]	[6]
HPLM + 10% dialyzed FBS, 0.000781 µM	97.8	80.5	71.1
HPLM + 10% dialyzed FBS, 0.00234 µM	110	102	70.5
HPLM + 10% dialyzed FBS, 0.00702 µM	121	113	79.2
HPLM + 10% dialyzed FBS, 0.0211 µM	105	104	92.5
HPLM + 10% dialyzed FBS, 0.0632 µM	126	120	91.4
HPLM + 10% dialyzed FBS, 0.19 µM	90	116	81.3
HPLM + 10% dialyzed FBS, 0.569 µM	116	118	90.1
HPLM + 10% dialyzed FBS, 1.71 µM	111	60.7	83.9
HPLM + 10% dialyzed FBS, 5.12 µM	113	33.1	72.8
HPLM + 10% dialyzed FBS, 15.4 µM	13.8	31.3	91.6
HPLM + 10% dialyzed FBS, 46.1 µM	15	23.8	82.1
RPMI 5 mM glucose + 10% FBS, 0.000781 µM	88.6	93.7	86.4
RPMI 5 mM glucose + 10% FBS, 0.00234 µM	103	109	96.4
RPMI 5 mM glucose + 10% FBS, 0.00702 µM	111	113	93.8
RPMI 5 mM glucose + 10% FBS, 0.0211 µM	109	116	97.7
RPMI 5 mM glucose + 10% FBS, 0.0632 µM	120	112	90.9
RPMI 5 mM glucose + 10% FBS, 0.19 µM	115	125	92.9
RPMI 5 mM glucose + 10% FBS, 0.569 µM	104	118	98.8
RPMI 5 mM glucose + 10% FBS, 1.71 µM	112	28.4	115
RPMI 5 mM glucose + 10% FBS, 5.12 µM	107	22.2	86.6
RPMI 5 mM glucose + 10% FBS, 15.4 µM	17.7	18.1	105
RPMI 5 mM glucose + 10% FBS, 46.1 µM	13.7	15.1	94.6
RPMI 5 mM glucose + 10% dialyzed FBS, 0.000781 µM	100	106	84.8
RPMI 5 mM glucose + 10% dialyzed FBS, 0.00234 µM	108	104	97
RPMI 5 mM glucose + 10% dialyzed FBS, 0.00702 µM	107	96	98.4
RPMI 5 mM glucose + 10% dialyzed FBS, 0.0211 µM	113	104	115
RPMI 5 mM glucose + 10% dialyzed FBS, 0.0632 µM	118	117	109
RPMI 5 mM glucose + 10% dialyzed FBS, 0.19 µM	109	113	86.1
RPMI 5 mM glucose + 10% dialyzed FBS, 0.569 µM	110	109	110
RPMI 5 mM glucose + 10% dialyzed FBS, 1.71 µM	116	89.6	110
RPMI 5 mM glucose + 10% dialyzed FBS, 5.12 µM	114	24.8	84.7
RPMI 5 mM glucose + 10% dialyzed FBS, 15.4 µM	45.3	23.6	112
RPMI 5 mM glucose + 10% dialyzed FBS, 46.1 µM	18.8	20	114

Clc1ccc2c(N3CCN(CCCN4CCN(c5ccnc6cc(Cl)ccc56)CC4)CC3)ccnc2c1
AUC of viability dose-response curve
Conditions	[1]	[2]	[3]
HPLM + 10% dialyzed FBS	456	469	464
RPMI 5 mM glucose + 10% FBS	448	457	459
RPMI 5 mM glucose + 10% dialyzed FBS	442	465	459

cell viability [%], [6]
Conditions	HPLM + 10% dialyzed FBS	RPMI 5 mM glucose + 10% dialyzed FBS
0.000781 µM	96.6	118
0.00234 µM	111	131
0.00702 µM	125	112
0.0211 µM	102	120
0.0632 µM	120	119
0.19 µM	120	128
0.569 µM	135	134
1.71 µM	130	146
5.12 µM	133	130
15.4 µM	102	109
46.1 µM	84.5	69.9
